# In ChEMBL document CHEMBL2406981, “Novel pyrazoline amidoxime and their 1,2,4-oxadiazole analogues: synthesis and pharmacological screening” (Bioorg Med Chem Lett, 2013):
# Experiments:
# Assay type in all cases: functional
# [1] = system: Aspergillus niger; assay: Antimicrobial activity against Aspergillus niger MTCC 281 at 100 ug/ml after 24 hrs by agar disc diffusion method; conditions: MTCC 281, 24 h, read-out: DIZ
# [2] = system: Aspergillus niger; assay: Antimicrobial activity against Aspergillus niger MTCC 281
# [3] = system: Aspergillus flavus; assay: Antimicrobial activity against Aspergillus flavus MTCC 873 at 50 ug/ml after 24 hrs by agar disc diffusion method; conditions: MTCC 873, 24 h, read-out: DIZ
# [4] = system: Aspergillus flavus; assay: Antimicrobial activity against Aspergillus flavus MTCC 873
# [5] = system: Aspergillus flavus; assay: Antimicrobial activity against Aspergillus flavus MTCC 873 at 100 ug/ml after 24 hrs by agar disc diffusion method; conditions: MTCC 873, 24 h, read-out: DIZ
# [6] = system: Aspergillus niger; assay: Antimicrobial activity against Aspergillus niger MTCC 281 at 50 ug/ml after 24 hrs by agar disc diffusion method; conditions: MTCC 281, 24 h, read-out: DIZ
# [7] = Antioxidant activity assessed as reducing power of ferric ion at 10 ug/ml after 20 mins; parameters: scale not given: the % may be the effect or the level left
# [8] = system: Shigella flexneri; assay: Antimicrobial activity against Shigella flexneri MTCC 1457
# [9] = system: Radical scavenging activity; assay: Antioxidant activity assessed as DPPH free radical scavenging activity at 10 ug/ml after 20 mins
# [10] = Antioxidant activity assessed as reducing power of ferric ion at 100 ug/ml after 20 mins; parameters: scale not given: the % may be the effect or the level left
# [11] = Antioxidant activity assessed as reducing power of ferric ion at 50 ug/ml after 20 mins; parameters: scale not given: the % may be the effect or the level left
# [12] = system: Shigella flexneri; assay: Antimicrobial activity against Shigella flexneri MTCC 1457 at 100 ug/ml after 24 hrs by agar disc diffusion method; conditions: MTCC 1457, 24 h, read-out: DIZ
# [13] = system: Klebsiella pneumoniae; assay: Antimicrobial activity against Klebsiella pneumoniae MTCC 3384 at 50 ug/ml after 24 hrs by agar disc diffusion method; conditions: MTCC 3384, 24 h, read-out: DIZ
# [14] = system: Shigella flexneri; assay: Antimicrobial activity against Shigella flexneri MTCC 1457 at 50 ug/ml after 24 hrs by agar disc diffusion method; conditions: MTCC 1457, 24 h, read-out: DIZ
# [15] = system: Bacillus cereus; assay: Antimicrobial activity against Bacillus cereus MTCC 8372 at 50 ug/ml after 24 hrs by agar disc diffusion method; conditions: MTCC 8372, 24 h, read-out: DIZ
# [16] = system: Bacillus cereus; assay: Antimicrobial activity against Bacillus cereus MTCC 8372 at 100 ug/ml after 24 hrs by agar disc diffusion method; conditions: MTCC 8372, 24 h, read-out: DIZ
# [17] = system: Staphylococcus aureus; assay: Antimicrobial activity against Staphylococcus aureus MTCC 96
# [18] = system: Radical scavenging activity; assay: Antioxidant activity assessed as DPPH free radical scavenging activity at 50 ug/ml after 20 mins
# [19] = system: Staphylococcus aureus; assay: Antimicrobial activity against Staphylococcus aureus MTCC 96 at 50 ug/ml after 24 hrs by agar disc diffusion method; conditions: MTCC 96, 24 h, read-out: DIZ
# [20] = system: Escherichia coli; assay: Antimicrobial activity against Escherichia coli MTCC 724 at 100 ug/ml after 24 hrs by agar disc diffusion method; conditions: MTCC 724, 24 h, read-out: DIZ
# [21] = system: Escherichia coli; assay: Antimicrobial activity against Escherichia coli MTCC 724 at 50 ug/ml after 24 hrs by agar disc diffusion method; conditions: MTCC 724, 24 h, read-out: DIZ
# [22] = system: Escherichia coli; assay: Antimicrobial activity against Escherichia coli MTCC 724
# [23] = system: Staphylococcus aureus; assay: Antimicrobial activity against Staphylococcus aureus MTCC 96 at 100 ug/ml after 24 hrs by agar disc diffusion method; conditions: MTCC 96, 24 h, read-out: DIZ
# [24] = system: Klebsiella pneumoniae; assay: Antimicrobial activity against Klebsiella pneumoniae MTCC 3384 at 100 ug/ml after 24 hrs by agar disc diffusion method; conditions: MTCC 3384, 24 h, read-out: DIZ
# [25] = Antiinflammatory activity against heat-induced albumin denaturation at […] preincubated for 15 mins before heat induction by UV-vis spectrophotometer analysis
# [26] = Antioxidant activity against ferric chloride-induced lipid peroxidation using egg lecithin at 10 ug/ml after 1 hr
# [27] = system: Bacillus cereus; assay: Antimicrobial activity against Bacillus cereus MTCC 8372
# [28] = Antioxidant activity against ferric chloride-induced lipid peroxidation using egg lecithin at 100 ug/ml after 1 hr
# [29] = system: Klebsiella pneumoniae; assay: Antimicrobial activity against Klebsiella pneumoniae MTCC 3384
# [30] = Antioxidant activity against ferric chloride-induced lipid peroxidation using egg lecithin at 50 ug/ml after 1 hr
# [31] = system: Radical scavenging activity; assay: Antioxidant activity assessed as DPPH free radical scavenging activity at 100 ug/ml after 20 mins
SMILES,zone of inhibition at 100 µg/mL [1],MIC [2],zone of inhibition at 50 µg/mL [3],MIC [4],zone of inhibition at 100 µg/mL [5],zone of inhibition at 50 µg/mL [6],Activity [7],MIC [8],Activity [9],Activity [10],Activity [11],zone of inhibition at 100 µg/mL [12],zone of inhibition at 50 µg/mL [13],zone of inhibition at 50 µg/mL [14],zone of inhibition at 50 µg/mL [15],zone of inhibition at 100 µg/mL [16],MIC [17],Activity [18],zone of inhibition at 50 µg/mL [19],zone of inhibition at 100 µg/mL [20],further results
OC(Cn1cncn1)(Cn1cncn1)c1ccc(F)cc1F [FLUCONAZOLE],30 mm,5 µg/mL,16 mm,5 µg/mL,28 mm,20 mm,–,–,–,–,–,–,–,–,–,–,–,–,–,–,–
Clc1ccc(C2=NN(c3ccccc3)C(c3noc(-c4ccccc4)n3)C2)cc1 (centres undefined),18 mm,15 µg/mL,12 mm,10 µg/mL,18 mm,9 mm,13%,25 µg/mL,23%,62%,26%,8 mm,6 mm,6 mm,5 mm,8 mm,50 µg/mL,40%,3 mm,10 mm,zone of inhibition at 50 µg/mL [21]: 4 mm; MIC [22]: 45 µg/mL; zone of inhibition at 100 µg/mL [23]: 11 mm; zone of inhibition at 100 µg/mL [24]: 8 mm; inhibition [25]: 60%; inhibition [26]: 31%; MIC [27]: 30 µg/mL; inhibition [28]: 71%; MIC [29]: 25 µg/mL; inhibition [30]: 44%; Activity [31]: 68%
COc1ccc(-c2nc(C3CC(c4ccc(Cl)cc4)=NN3c3ccccc3)no2)cc1OC (centres undefined),27 mm,10 µg/mL,14 mm,10 µg/mL,21 mm,14 mm,14%,15 µg/mL,30%,75%,29%,16 mm,9 mm,10 mm,8 mm,14 mm,25 µg/mL,59%,6 mm,12 mm,zone of inhibition at 50 µg/mL [21]: 8 mm; MIC [22]: 20 µg/mL; zone of inhibition at 100 µg/mL [23]: 12 mm; zone of inhibition at 100 µg/mL [24]: 11 mm; inhibition [25]: 53.5%; inhibition [26]: 30%; MIC [27]: 20 µg/mL; inhibition [28]: 73%; MIC [29]: 15 µg/mL; inhibition [30]: 52%; Activity [31]: 86%
N/C(=N\O)C1CC(c2ccc(Cl)cc2)=NN1c1ccccc1 (centres undefined),8 mm,20 µg/mL,6 mm,25 µg/mL,10 mm,8 mm,11%,20 µg/mL,29%,68%,28%,12 mm,8 mm,8 mm,4 mm,8 mm,40 µg/mL,39%,3 mm,10 mm,zone of inhibition at 50 µg/mL [21]: 3 mm; MIC [22]: 40 µg/mL; zone of inhibition at 100 µg/mL [23]: 5 mm; zone of inhibition at 100 µg/mL [24]: 10 mm; inhibition [25]: 59.1%; inhibition [26]: 18%; MIC [27]: 30 µg/mL; inhibition [28]: 14%; MIC [29]: 20 µg/mL; inhibition [30]: 12%; Activity [31]: 69%
Clc1ccc(C2=NN(c3ccccc3)C(c3noc(-c4ccc(Cl)cc4)n3)C2)cc1 (centres undefined),26 mm,5 µg/mL,15 mm,10 µg/mL,25 mm,20 mm,16%,20 µg/mL,29%,86%,32%,12 mm,6 mm,8 mm,6 mm,12 mm,20 µg/mL,53%,6 mm,10 mm,zone of inhibition at 50 µg/mL [21]: 8 mm; MIC [22]: 20 µg/mL; zone of inhibition at 100 µg/mL [23]: 12 mm; zone of inhibition at 100 µg/mL [24]: 10 mm; inhibition [25]: 78.4%; inhibition [26]: 34%; MIC [27]: 25 µg/mL; inhibition [28]: 83%; MIC [29]: 25 µg/mL; inhibition [30]: 58%; Activity [31]: 82%
COc1ccc(C2=NN(c3ccccc3)C(c3noc(-c4ccc(Cl)cc4)n3)C2)cc1 (centres undefined),20 mm,10 µg/mL,12 mm,10 µg/mL,18 mm,12 mm,12%,25 µg/mL,22%,58%,23%,8 mm,7 mm,8 mm,4 mm,13 mm,30 µg/mL,52%,5 mm,10 mm,zone of inhibition at 50 µg/mL [21]: 8 mm; MIC [22]: 25 µg/mL; zone of inhibition at 100 µg/mL [23]: 12 mm; zone of inhibition at 100 µg/mL [24]: 10 mm; inhibition [25]: 57.5%; inhibition [26]: 34%; MIC [27]: 40 µg/mL; inhibition [28]: 70%; MIC [29]: 25 µg/mL; inhibition [30]: 48%; Activity [31]: 72%
COc1ccc(-c2nc(C3CC(c4ccc(O)cc4)=NN3c3ccccc3)no2)cc1OC (centres undefined),26 mm,5 µg/mL,14 mm,10 µg/mL,20 mm,18 mm,18%,15 µg/mL,31%,75%,24%,18 mm,8 mm,10 mm,10 mm,16 mm,20 µg/mL,53%,8 mm,12 mm,zone of inhibition at 50 µg/mL [21]: 7 mm; MIC [22]: 25 µg/mL; zone of inhibition at 100 µg/mL [23]: 18 mm; zone of inhibition at 100 µg/mL [24]: 12 mm; inhibition [25]: 58.5%; inhibition [26]: 32%; MIC [27]: 15 µg/mL; inhibition [28]: 73%; MIC [29]: 25 µg/mL; inhibition [30]: 45%; Activity [31]: 76%
O=C1O[C@H]([C@@H](O)CO)C(O)=C1O,–,–,–,–,–,–,14%,–,32%,82%,32%,–,–,–,–,–,–,57%,–,–,Activity [31]: 94%
O=C(N[C@H](CO)[C@H](O)c1ccc([N+](=O)[O-])cc1)C(Cl)Cl [CHLORAMPHENICOL],–,–,–,–,–,–,–,10 µg/mL,–,–,–,24 mm,12 mm,10 mm,10 mm,18 mm,10 µg/mL,–,9 mm,18 mm,zone of inhibition at 50 µg/mL [21]: 10 mm; MIC [22]: 10 µg/mL; zone of inhibition at 100 µg/mL [23]: 16 mm; zone of inhibition at 100 µg/mL [24]: 20 mm; MIC [27]: 10 µg/mL; MIC [29]: 10 µg/mL
O=C(O)Cc1ccccc1Nc1c(Cl)cccc1Cl,–,–,–,–,–,–,–,–,–,–,–,–,–,–,–,–,–,–,–,–,inhibition [25]: 84.4%
